Data: ChEMBL document CHEMBL4602676, “Discovery and Development of 3-(6-Chloropyridine-3-yloxymethyl)-2-azabicyclo[3.1.0]hexane Hydrochloride (SUVN-911): A Novel, Potent, Selective, and Orally Active Neuronal Nicotinic Acetylcholine α4β2 Receptor Antagonist for the Treatment of Depression” (J Med Chem, 2020)

Assays:
[1] = Oral bioavailability in Wistar rat at 10 ml/kg measured upto 24 hrs by LC-MS/MS analysis; format: ADME, organism-based; details: in vivo
[2] = Toxicity in telemetered Beagle dog assessed as change in body weight up to 25 mg/kg, po; format: organism-based, Canis lupus familiaris; details: in vivo
[3] = Oral bioavailability in Beagle dog at 3 mg/kg by LC-MS/MS analysis; format: ADME, organism-based, Canis lupus familiaris; details: in vivo
[4] = tested on: Rattus norvegicus; assay: Antidepressant activity in Wistar rat assessed as immobility time at 3.0 mg/kg, po measured for 5 mins by forced swim test (reference value: 241.9 to 281.6 sec); format: functional
[5] = Terminal half life in Beagle dog at 1 mg/kg, iv by LC-MS/MS analysis; format: ADME, organism-based, Canis lupus familiaris; details: in vivo, read-out: beta t1/2 (converted)
[6] = Clearance in Beagle dog at 1 mg/kg, iv by LC-MS/MS analysis; format: ADME, organism-based, Canis lupus familiaris; details: in vivo
[7] = Protein binding in human plasma assessed as unbound fraction at […] incubated for 6 hrs by LC-MS/MS analysis; format: ADME, cell-free
[8] = Apparent permeability in human Caco2 cells; format: ADME, cell-based; details: caco-2
[9] = Genotoxicity in Salmonella typhimurium TA1535 in absence of metabolic activation; format: toxicity; details: salmonella enterica subsp. enterica serovar typhimurium
[10] = molecular target: Cytochrome P450 3A4 (Homo sapiens, UniProt P08684); assay: Induction of CYP3A4 (unknown origin); format: ADME
Sequence of Cytochrome P450 3A4 (P08684 whole entry): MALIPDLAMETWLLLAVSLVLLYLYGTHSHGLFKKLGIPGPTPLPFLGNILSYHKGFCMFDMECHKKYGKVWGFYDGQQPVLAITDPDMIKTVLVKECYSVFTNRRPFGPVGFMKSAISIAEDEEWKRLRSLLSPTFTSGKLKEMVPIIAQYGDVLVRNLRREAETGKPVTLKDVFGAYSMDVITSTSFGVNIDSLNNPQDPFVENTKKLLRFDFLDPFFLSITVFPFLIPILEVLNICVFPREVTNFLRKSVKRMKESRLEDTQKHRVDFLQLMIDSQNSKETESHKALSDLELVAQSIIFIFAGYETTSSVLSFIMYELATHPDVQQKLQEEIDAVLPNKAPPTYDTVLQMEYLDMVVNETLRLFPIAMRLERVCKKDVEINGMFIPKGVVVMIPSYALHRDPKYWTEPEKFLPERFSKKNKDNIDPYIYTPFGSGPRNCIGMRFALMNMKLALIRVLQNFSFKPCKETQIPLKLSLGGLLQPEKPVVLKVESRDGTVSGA

[11] = molecular target: T1, Solute carrier family 22 member 6 (Homo sapiens, UniProt Q4U2R8); assay: Inhibition of OAT1 (unknown origin)
T1 sequence (Q4U2R8 whole entry): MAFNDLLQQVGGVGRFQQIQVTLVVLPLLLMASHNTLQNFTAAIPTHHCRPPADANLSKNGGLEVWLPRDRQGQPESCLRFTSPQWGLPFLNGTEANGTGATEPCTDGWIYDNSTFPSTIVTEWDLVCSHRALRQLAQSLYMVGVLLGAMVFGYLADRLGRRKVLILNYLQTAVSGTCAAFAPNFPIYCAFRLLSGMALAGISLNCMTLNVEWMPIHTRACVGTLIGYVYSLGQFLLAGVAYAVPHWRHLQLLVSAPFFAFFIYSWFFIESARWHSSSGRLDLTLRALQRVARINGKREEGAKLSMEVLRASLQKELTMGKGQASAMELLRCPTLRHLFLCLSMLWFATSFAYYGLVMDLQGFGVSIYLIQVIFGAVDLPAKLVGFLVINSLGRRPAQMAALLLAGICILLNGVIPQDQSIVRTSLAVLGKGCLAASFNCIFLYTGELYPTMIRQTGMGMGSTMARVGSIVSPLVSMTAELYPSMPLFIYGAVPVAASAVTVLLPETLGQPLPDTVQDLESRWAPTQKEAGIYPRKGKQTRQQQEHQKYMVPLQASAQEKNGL

[12] = molecular target: T2, Organic anion transporter 3 (Homo sapiens, UniProt Q8TCC7); assay: Inhibition of OAT3 (unknown origin)
T2 sequence (Q8TCC7 whole entry): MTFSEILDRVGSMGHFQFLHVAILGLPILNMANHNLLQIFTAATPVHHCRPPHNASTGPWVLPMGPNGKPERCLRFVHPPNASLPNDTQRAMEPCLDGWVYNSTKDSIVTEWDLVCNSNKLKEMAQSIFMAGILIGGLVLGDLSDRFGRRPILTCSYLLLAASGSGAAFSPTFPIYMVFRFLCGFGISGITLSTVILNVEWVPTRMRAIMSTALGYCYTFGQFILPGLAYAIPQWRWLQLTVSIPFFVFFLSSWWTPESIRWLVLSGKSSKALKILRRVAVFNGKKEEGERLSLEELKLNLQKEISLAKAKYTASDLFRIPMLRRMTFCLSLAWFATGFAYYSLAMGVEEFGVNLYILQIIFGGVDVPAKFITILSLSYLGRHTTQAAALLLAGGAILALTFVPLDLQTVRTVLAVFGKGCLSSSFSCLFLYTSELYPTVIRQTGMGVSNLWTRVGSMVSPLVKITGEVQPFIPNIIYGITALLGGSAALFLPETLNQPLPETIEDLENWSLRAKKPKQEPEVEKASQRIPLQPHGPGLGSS

[13] = molecular target: T3, Solute carrier family 22 member 1 (Homo sapiens, UniProt O15245); assay: Inhibition of OCT1 (unknown origin)
T3 sequence (O15245 whole entry): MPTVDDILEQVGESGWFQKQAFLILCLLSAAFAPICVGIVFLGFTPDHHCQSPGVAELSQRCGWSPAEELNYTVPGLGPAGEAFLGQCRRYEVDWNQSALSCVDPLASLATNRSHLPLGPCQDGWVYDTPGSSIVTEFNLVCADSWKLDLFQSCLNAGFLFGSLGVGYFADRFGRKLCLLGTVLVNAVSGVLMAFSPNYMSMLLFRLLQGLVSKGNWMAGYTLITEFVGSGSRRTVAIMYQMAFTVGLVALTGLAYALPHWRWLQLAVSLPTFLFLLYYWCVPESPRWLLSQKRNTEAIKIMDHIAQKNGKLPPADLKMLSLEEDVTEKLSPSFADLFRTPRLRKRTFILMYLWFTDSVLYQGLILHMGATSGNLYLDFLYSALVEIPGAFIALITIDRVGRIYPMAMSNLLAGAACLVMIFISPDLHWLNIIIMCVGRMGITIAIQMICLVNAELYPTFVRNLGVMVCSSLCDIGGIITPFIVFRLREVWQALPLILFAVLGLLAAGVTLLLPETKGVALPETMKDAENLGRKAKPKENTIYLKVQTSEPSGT

[14] = molecular target: T4, Solute carrier organic anion transporter family member 1B3 (Homo sapiens, UniProt Q9NPD5); assay: Inhibition of OATP1B3 (unknown origin)
T4 sequence (Q9NPD5 whole entry): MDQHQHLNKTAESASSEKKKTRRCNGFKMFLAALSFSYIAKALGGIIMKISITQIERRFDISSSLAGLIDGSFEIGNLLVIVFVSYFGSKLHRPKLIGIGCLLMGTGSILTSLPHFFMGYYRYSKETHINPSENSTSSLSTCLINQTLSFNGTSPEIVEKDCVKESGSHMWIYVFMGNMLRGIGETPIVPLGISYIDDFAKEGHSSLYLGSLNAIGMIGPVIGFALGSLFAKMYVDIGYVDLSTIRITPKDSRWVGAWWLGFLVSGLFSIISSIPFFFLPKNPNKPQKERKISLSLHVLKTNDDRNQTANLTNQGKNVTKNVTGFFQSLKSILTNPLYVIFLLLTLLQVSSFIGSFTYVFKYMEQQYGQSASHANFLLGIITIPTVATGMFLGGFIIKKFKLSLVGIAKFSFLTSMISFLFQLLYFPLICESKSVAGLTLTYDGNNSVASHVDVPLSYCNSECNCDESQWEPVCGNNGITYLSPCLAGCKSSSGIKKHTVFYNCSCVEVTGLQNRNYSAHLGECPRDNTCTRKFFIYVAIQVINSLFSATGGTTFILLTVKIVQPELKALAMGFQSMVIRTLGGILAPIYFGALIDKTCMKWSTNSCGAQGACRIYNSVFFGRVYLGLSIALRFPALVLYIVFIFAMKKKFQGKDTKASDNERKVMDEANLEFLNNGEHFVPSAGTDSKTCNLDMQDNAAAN

[15] = Genotoxicity in Salmonella typhimurium TA1535 in presence of metabolic activation; format: toxicity; details: salmonella enterica subsp. enterica serovar typhimurium
[16] = Genotoxicity in Salmonella typhimurium TA1537 in presence of metabolic activation; format: toxicity; details: salmonella enterica subsp. enterica serovar typhimurium

Cl.Clc1ccc(OC[C@@H]2C[C@H]3C[C@H]3N2)cn1
bioavailability [1]: 66%
Activity [2]: Non-Toxic
bioavailability [3]: 83%
Time [4]: 155.9 s
half-life [5]: 1.9 h
clearance [6]: 10 mL/min/kg
fraction unbound at 6 h [7]: 0.21
Papp [8]: 68.8 ×10⁻⁶ cm/s
Activity [9]: Non-Toxic
Activity [10]: Not Active
inhibition (INH) [11]: Not Active
inhibition (INH) [12]: Not Active
inhibition (INH) [13]: Not Active
inhibition (INH) [14]: Not Active
Activity [15]: Non-Toxic
Activity [16]: Non-Toxic
